In US20230055237A1, “COMPOUNDS AND METHODS FOR THE TREATMENT OF CYSTIC FIBROSIS” (Flatley Discovery Lab, LLC, priority 2019, published 2023):

Molecular target: T1, CFTR (Homo sapiens, UniProt P13569, DEL508-508)
T1 construct: Primary CF airway epithelial cells were obtained from the UNC Cystic Fibrosis Tissue Procurement and Cell Culture Core; host or cells: primary CF airway epithelial cells, differentiated at the air-liquid interface
Experiment: Equivalent current assay in primary CF airway epithelial cells (NAUC, combination with 1st site corrector FDL169 or VX-809)
Type: cell-based
Settings: 37° C., 24 h

[1] = test compound 1 μM in combination with 1st site corrector FDL169 (3 μM)
[2] = test compound 3 μM in combination with 1st site corrector FDL169 (3 μM)
[3] = test compound 1 μM in combination with 1st site corrector VX-809 (3 μM)
[4] = test compound 3 μM in combination with 1st site corrector VX-809 (3 μM)
[5] = test compound 10 μM in combination with 1st site corrector VX-809 (3 μM)
[6] = test compound 10 μM in combination with 1st site corrector FDL169 (3 μM)

T1 sequence (P13569 with tags, fused parts or gaps DEL508-508): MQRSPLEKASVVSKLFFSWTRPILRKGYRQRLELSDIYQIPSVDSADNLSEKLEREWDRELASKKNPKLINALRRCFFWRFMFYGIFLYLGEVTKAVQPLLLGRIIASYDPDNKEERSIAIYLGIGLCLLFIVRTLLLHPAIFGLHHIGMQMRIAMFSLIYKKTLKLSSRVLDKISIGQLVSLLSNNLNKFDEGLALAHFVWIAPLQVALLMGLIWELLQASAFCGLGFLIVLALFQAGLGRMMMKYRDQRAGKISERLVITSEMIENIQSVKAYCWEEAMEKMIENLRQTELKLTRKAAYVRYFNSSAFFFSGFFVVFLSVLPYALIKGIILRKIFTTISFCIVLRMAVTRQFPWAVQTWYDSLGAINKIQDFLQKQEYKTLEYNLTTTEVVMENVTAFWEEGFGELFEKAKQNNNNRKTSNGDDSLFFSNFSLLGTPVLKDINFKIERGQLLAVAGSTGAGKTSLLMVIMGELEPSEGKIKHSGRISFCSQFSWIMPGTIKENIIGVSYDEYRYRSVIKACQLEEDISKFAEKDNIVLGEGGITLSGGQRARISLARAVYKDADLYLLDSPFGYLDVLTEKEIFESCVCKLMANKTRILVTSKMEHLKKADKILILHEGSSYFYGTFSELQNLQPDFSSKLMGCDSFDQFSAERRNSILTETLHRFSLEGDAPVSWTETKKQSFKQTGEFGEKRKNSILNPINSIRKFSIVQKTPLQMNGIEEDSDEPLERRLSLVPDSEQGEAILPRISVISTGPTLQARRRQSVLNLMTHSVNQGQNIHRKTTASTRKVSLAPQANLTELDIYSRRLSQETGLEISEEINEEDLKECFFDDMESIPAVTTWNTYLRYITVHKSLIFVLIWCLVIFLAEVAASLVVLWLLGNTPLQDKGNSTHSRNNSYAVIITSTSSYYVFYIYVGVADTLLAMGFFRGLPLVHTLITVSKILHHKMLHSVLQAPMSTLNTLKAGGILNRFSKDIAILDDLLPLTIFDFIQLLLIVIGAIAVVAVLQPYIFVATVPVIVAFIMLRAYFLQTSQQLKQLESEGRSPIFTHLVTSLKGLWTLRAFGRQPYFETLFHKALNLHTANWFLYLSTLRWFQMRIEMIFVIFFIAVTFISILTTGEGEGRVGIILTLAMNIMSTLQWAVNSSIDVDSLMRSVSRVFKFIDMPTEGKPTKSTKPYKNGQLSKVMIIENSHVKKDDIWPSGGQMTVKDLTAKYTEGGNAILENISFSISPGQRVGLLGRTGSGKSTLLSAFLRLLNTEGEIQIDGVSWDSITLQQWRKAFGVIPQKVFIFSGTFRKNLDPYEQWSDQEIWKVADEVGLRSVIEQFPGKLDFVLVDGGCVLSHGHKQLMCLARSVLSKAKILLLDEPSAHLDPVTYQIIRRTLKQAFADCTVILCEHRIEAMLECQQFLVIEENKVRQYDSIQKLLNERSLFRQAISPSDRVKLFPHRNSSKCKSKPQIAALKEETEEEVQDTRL

## O=C(O)[C@H]1[C@@H](C(=O)N(CC2CC2)c2cc(Cl)cc(Cl)c2)[C@@H](C(F)(F)F)NC12C(=O)Nc1c(Cl)cc(Cl)cc12 (single isomer, unassigned) [Example 270b]
[1]
  Nauc @ 1 μM: + (NAUC “+” refers to an observed NAUC <140% of positive control)
[2]
  Nauc @ 3 μM: ++ (NAUC “++” refers to an observed NAUC 170-140% of positive control)

## O=C(O)[C@H]1[C@@H](C(=O)N(CC2CC2)c2cc(Cl)cc(Cl)c2)[C@H]2CCCN2C12C(=O)Nc1c(Cl)cc(Cl)cc12 (single isomer, unassigned) [Example 83b]
[1]
  Nauc @ 1 μM: +++ (NAUC “+++” refers to an observed NAUC>170% of positive control)
[2]
  Nauc @ 3 μM: +++ (NAUC “+++” refers to an observed NAUC>170% of positive control)

## CN(CC(C)(C)c1cccc(C(C)(C)C)c1)C(=O)[C@H]1[C@H]2CC(F)(F)CN2[C@]2(C(=O)Nc3c(Cl)cc(Cl)cc32)[C@H]1C(=O)O [Example 170]
[3]
  Nauc @ 1 μM: +++ (NAUC “+++” refers to an observed NAUC>170% of positive control)
[4]
  Nauc @ 3 μM: + (NAUC “+” refers to an observed NAUC <140% of positive control)
[5]
  Nauc @ 10 μM: + (NAUC “+” refers to an observed NAUC <140% of positive control)

## COc1ccc2c(c1)C1(C(=O)N2)[C@@H](C(=O)O)[C@@H](C(=O)N(C)c2cc(Cl)cc(Cl)c2)[C@H]2CC(F)(F)CN21 (stereo partly drawn) [Example 103]
[1]
  Nauc @ 1 μM: + (NAUC “+” refers to an observed NAUC <140% of positive control)
[2]
  Nauc @ 3 μM: + (NAUC “+” refers to an observed NAUC <140% of positive control)
[6]
  Nauc @ 10 μM: + (NAUC “+” refers to an observed NAUC <140% of positive control)

## CN(C(=O)[C@H]1[C@H]2CCCCN2[C@]2(C(=O)Nc3c(Cl)cc(Cl)cc32)[C@H]1C(=O)O)c1cc(Cl)cc(Cl)c1 (racemic) [Example 219, rac-(1′R,2′S,3R,8a′R)-5,7-dichloro-1′-((3,5-dichlorophenyl)(methyl)carbamoyl)-2-oxo-1′,5′,6′,7′,8′,8a′-hexahydro-2′H-spiro[indoline-3,3′-indolizine]-2′-carboxylic acid]
[1]
  Nauc @ 1 μM: ++ (NAUC “++” refers to an observed NAUC 170-140% of positive control)
[2]
  Nauc @ 3 μM: + (NAUC “+” refers to an observed NAUC <140% of positive control)

## CN(C(=O)[C@@H]1[C@H](C(F)(F)F)NC2(C(=O)Nc3c(Cl)cc(Cl)cc32)[C@@H]1C(=O)O)c1cc(Cl)cc(Cl)c1 (single isomer, unassigned) [Example 269a]
[3]
  Nauc @ 1 μM: + (NAUC “+” refers to an observed NAUC <140% of positive control)
[4]
  Nauc @ 3 μM: + (NAUC “+” refers to an observed NAUC <140% of positive control)
[5]
  Nauc @ 10 μM: + (NAUC “+” refers to an observed NAUC <140% of positive control)

## O=C(Nc1cc(Cl)cc(Cl)c1)C1C(C(F)(F)c2ccccc2Cl)NC2(C(=O)Nc3c(Cl)cc(Cl)cc32)C1C(=O)O (stereo not drawn) [Example 63]
[5]
  Nauc @ 10 μM: +++ (NAUC “+++” refers to an observed NAUC>170% of positive control)

## Cc1cccc(CCNC(=O)C2C3CC(F)(F)CN3C3(C(=O)Nc4c(Cl)cc(Cl)cc43)C2C(=O)O)c1 (stereo not drawn) [Example 48]
[4]
  Nauc @ 3 μM: ++ (NAUC “++” refers to an observed NAUC 170-140% of positive control)
[5]
  Nauc @ 10 μM: +++ (NAUC “+++” refers to an observed NAUC>170% of positive control)

## CC(C)(C)C(C)(C)CN(C(=O)[C@H]1[C@H]2C[C@](C)(O)CN2[C@]2(C(=O)Nc3c(Cl)cc(Cl)cc32)[C@H]1C(=O)O)c1cc(Cl)cc(Cl)c1 [Example 96]
[1]
  Nauc @ 1 μM: +++ (NAUC “+++” refers to an observed NAUC>170% of positive control)
[2]
  Nauc @ 3 μM: +++ (NAUC “+++” refers to an observed NAUC>170% of positive control)
[6]
  Nauc @ 10 μM: + (NAUC “+” refers to an observed NAUC <140% of positive control)
